Values of other authors in US20130210878A1, “BENDAMUSTINE COMPOSITIONS AND METHODS THEREFORE” (Innopharma, Inc., priority 2012, published 2013).
Read-outs that look alike come from different tables or passages of the source.

Conditions: 0.25 mg/ml in 0.9% sodium chloride

SMILES: Cl.Cn1c(CCCC(=O)O)nc2cc(N(CCCl)CCCl)ccc21 [Bendamustine HCl, 1H-benzimidazole-2-butanoic acid, 5-[bis(2-chloro-ethyl)amino]-1 methyl-, monohydrochloride]
- time stable (4° C.): 4 days
- time stable (23° C.): 0.38 days
